In patent publication US4167580A, “Compositions and method of use to treat arthritic disease with m-fluorobenzimidoylacetonitrile” (American Cyanamid Company, priority 1978, dated 1979):

Assays:
Erythema in Guinea Pigs = test: Ultraviolet induced erythema in guinea pigs, topical application; assay type: in vivo, Albino guinea pigs
Experimental: Albino guinea pigs were depilitated on their flanks, the evening before testing, with a standard mixture of barium sulfide and gum acacia. On the morning of the test at 0 hour they were restrained in a plastic container which allows exposure of 3 circular spots. They were then exposed to ultraviolet irradiation from a "Hanovia" Kromayer lamp, model 10, for 60 seconds. Immediately after exposure to ultraviolet light, the guinea pigs were treated by dissolving the test compound in ethyl alcohol at various concentrations and swabbing the UV exposed areas with the aid of a cottom tipped applicator stick. At one and four hours, the degree of erythema for each of the three sites was assessed according to the following scoring system: 0=no erythema, 0.5=incomplete circle or faint erythema and 1.0=complete circle of distinct erythema. Thus, the maximum score for each animal was 3.0.

[1] = tested on: Carrageenin Induced Edema of the Rat Paw; test: Carrageenin induced edema of the rat paw (acute anti-inflammatory activity); assay type: in vivo, Royal Hart, Wistar strain rats; settings: 250 mg./kg. by gavage, 5 hours after drug (4 hours after carrageenin)
Experimental: In determining the acute anti-inflammatory activity of benzimidoylacetonitrile, Royal Hart, Wistar strain rats ranging in weight from 80 to 90 grams were used. The rats were fasted overnight prior to dosing but had free access to water. The compound was administered in aqueous suspension, by gavage, in a volume of 1.7 ml. per 50 grams of rat [corresponds by hydration volume used by Winter et al., Proc. Soc. […] The phlogistic agent used was carrageenin prepared as a sterile 1% suspension in 0.9% aqueous sodium chloride for routine testing. A volume of 0.05 ml. was injected through a 26 gauge needle into the planter tissue of the right hind paw. Measurements were made 5 hours after drug administration (4 hours after carrageenin challenge). Volumes of both the normal and carrageenin inflamed feet were determined. The difference between the two measurements is considered to be the increased edema due to the carrageenin administration.

[2] = tested on: Adjuvant Arthritis in Rats; test: Adjuvant induced arthritis in rats (chronic inflammation with joint destruction); assay type: in vivo, Royal Hart, Wistar strain rats; settings: for % Inhibition of Control Grade (secondary lesion), Day 14 / % Inhibition of Control Grade (secondary lesion), Day 21 / % Inhibition of Swelling (primary lesion), Day 14 / % Inhibition of Swelling (primary lesion), Day 21 / Dead/Treated At 21 Days / Mean Weight Gain, Day 14 / Mean Weight Gain, Day 21: once daily days 0-13
From the text: Adjuvant induced experimental polyarthritis is a specific systemic disease of the rat which shares interesting similarities with rheumatoid arthritis. Specifically, the histology of the two diseases bears a remarkable resemblance as shown by C. M. Pearson et al., Am. J. Pathol. 42, 73 (1963). E. M. Glenn, Am. J. Vet. Res. 27 (116), 339 (1966) has classified adjuvant induced polyarthritis as a crippling and permanent deformity resulting from diffuse connective tissue involvement around certain susceptible joints in the rat. Zahiri et al., Can. Med. Ass. J. 101, 269 (1969) have shown that the fusiform swelling of the distal joints is associated with edema, congestion and synovitis including pannus formation, all of which precede the ultimate destruction of bone and cartilage. Furthermore, Zahiri et al. indicate that the cartilage destruction in the joint is due to an invasive pannus which originates in the marginal synovium and extends across the articular surface to erode it. […] See S. Wong et al., J. Pharm. & Exptl. Ther. 185, 127 (1973) and G. R. Bobalick et al., Agents & Actions 4, 364 (1974). In a similar manner, inhibition of the progress of arthritis in paws of rats treated with the compounds of this invention also lessens associated joint deterioration.
Groups of three Royal Hart, Wistar strain rats weighing 200±10 grams each were injected intradermally in the right hind paw with Freund's adjuvant (dried human tubercle bacilli in a mineral oil vehicle) at a dose of 2 mg./kg. of body weight. Test compounds were administered orally in a 1.5% staruh vehicle at various doses once daily on days 0 through 13 post challenge. Control rats were treated in a similar manner, but given only starch vehicle. On the 14th and 21st day post challenge the diameter of the injected paw (primary lesion) was measured by micrometer caliper. The volume of inflamed paws were estimated from these measurements and the results are expressed as percent inhibition of swelling as compared to controls. At the same time, the other inflamed sites, such as ears, paws and tail (secondary lesions) were observed and each rat was graded as to degree of inflammation and swelling present. The grading is based on a scale of 0 to 24, where 0 represents a complete absence of induced arthritic nodules and 24 represents the maximum degree of inflammation. The mean grade for each treated group is calculated and the effects of each compound are expressed as percent inhibition of the control grade. Table III records the results of these tests conducted with benzimidoylacetonitrile, m-fluorobenzimidoylacetonitrile and p-fluorobenzimidoylacetonitrile and known anti-inflammatory agents. The active compounds of the present invention suppress the progression of the arthritis and associated joint deterioration. Of particular interest is the low mortality observed with benzimidoylacetonitrile treated rats relative to either controls or rats treated with standard compounds.

[3] = tested on: Body Temperature of Pyretic Rats; test: Body temperature in yeast induced pyrexia; assay type: in vivo, Royal Hart, Wistar strain rats; settings: 250 mg./kg. by gavage 17 hours after yeast; measured 19 hours post challenge
Experimental: The effect of benzimidoylacetonitrile on body temperature in yeast induced pyrexia was determined by the following procedure. Groups of three Royal Hart, Wistar strain rats weighing 80±5 grams were injected subcutaneously in the nape of the neck with 0.6 ml. of a 40% suspension of dried brewers yeast in distilled water. […] At 19 hours post challenge the rectal temperature of each rat was measured with an electric thermometer. Each dose response experiment was replicated one or more times.

[4] = 1% in ethyl alcohol, maximum score 3.0, ethyl alcohol control 2.5
[5] = 1% in ethyl alcohol, maximum score 3.0, ethyl alcohol control 3.0

| SMILES | Erythema Score (Avg.) 1 Hr. (Erythema in Guinea Pigs; [4]) | Erythema Score (Avg.) 4 Hr. (Erythema in Guinea Pigs; [5]) | C/T Edema Ratio (edema of control animals/edema of treated animals) [1] | % Inhibition of Control Grade (secondary lesion), Day 14 ([2]; 50 mg./kg. oral) | % Inhibition of Control Grade (secondary lesion), Day 21 ([2]; 50 mg./kg. oral) | % Inhibition of Swelling (primary lesion), Day 14 ([2]; 50 mg./kg. oral) | % Inhibition of Swelling (primary lesion), Day 21 ([2]; 50 mg./kg. oral) | Dead/Treated At 21 Days ([2]; 50 mg./kg. oral) | Mean Weight Gain, Day 14 ([2]; 50 mg./kg. oral) | Mean Weight Gain, Day 21 ([2]; 50 mg./kg. oral) | % Inhibition of Control Grade (secondary lesion), Day 14 ([2]; 100 mg./kg. oral) | % Inhibition of Control Grade (secondary lesion), Day 21 ([2]; 100 mg./kg. oral) | % Inhibition of Swelling (primary lesion), Day 14 ([2]; 100 mg./kg. oral) | % Inhibition of Swelling (primary lesion), Day 21 ([2]; 100 mg./kg. oral) | Dead/Treated At 21 Days ([2]; 100 mg./kg. oral) | Mean Weight Gain, Day 14 ([2]; 100 mg./kg. oral) | Mean Weight Gain, Day 21 ([2]; 100 mg./kg. oral) | Decrease In Body Temp. [3] | other results |
| --- | --- | --- | --- | --- | --- | --- | --- | --- | --- | --- | --- | --- | --- | --- | --- | --- | --- | --- | --- |
| CC(=O)Oc1ccccc1C(=O)O [Aspirin] | 1.9 | 2.8 | 2.8 | 12% | 9% | 23% | 3% | 2/21 | 56 grams | 44 grams | 19% | 8% | 36% | 13% | 18/63 | 48 grams | 53 grams | 1.5 °C | % Inhibition of Control Grade (secondary lesion), Day 14 ([2]; 200 mg./kg. oral): 26%; % Inhibition of Control Grade (secondary lesion), Day 21 ([2]; 200 mg./kg. oral): 17%; % Inhibition of Swelling (primary lesion), Day 14 ([2]; 200 mg./kg. oral): 48%; % Inhibition of Swelling (primary lesion), Day 21 ([2]; 200 mg./kg. oral): 27%; Dead/Treated At 21 Days ([2]; 200 mg./kg. oral): 10/66; Mean Weight Gain, Day 14 ([2]; 200 mg./kg. oral): 40 grams; Mean Weight Gain, Day 21 ([2]; 200 mg./kg. oral): 44 grams; % Inhibition of Control Grade (secondary lesion), Day 14 ([2]; 400 mg./kg. oral): 58%; % Inhibition of Control Grade (secondary lesion), Day 21 ([2]; 400 mg./kg. oral): 45%; % Inhibition of Swelling (primary lesion), Day 14 ([2]; 400 mg./kg. oral): 73%; % Inhibition of Swelling (primary lesion), Day 21 ([2]; 400 mg./kg. oral): 48%; Dead/Treated At 21 Days ([2]; 400 mg./kg. oral): 19/57; Mean Weight Gain, Day 14 ([2]; 400 mg./kg. oral): 41 grams; Mean Weight Gain, Day 21 ([2]; 400 mg./kg. oral): 55 grams |
| N#CCC(=N)c1ccccc1 [Benzimidoylacetonitrile, benzimidoylacetonitrile] | 1.0 | 2.8 | 2.2 | 59% | 48% | 63% | 62% | 1/24 | 31 grams | 49 grams | 57% | 46% | 68% | 60% | 0/15 | 46 grams | 65 grams | 1.4 °C | Erythema Score (Avg.) 1 Hr. (Erythema in Guinea Pigs; 2% in ethyl alcohol, maximum score 3.0, control 2.5): 0.6; Erythema Score (Avg.) 4 Hr. (Erythema in Guinea Pigs; 2% in ethyl alcohol, maximum score 3.0, control 3.0): 2.7; % Inhibition of Control Grade (secondary lesion), Day 14 ([2]; 25 mg./kg. oral): 33%; % Inhibition of Control Grade (secondary lesion), Day 21 ([2]; 25 mg./kg. oral): 16%; % Inhibition of Swelling (primary lesion), Day 14 ([2]; 25 mg./kg. oral): 33%; % Inhibition of Swelling (primary lesion), Day 21 ([2]; 25 mg./kg. oral): 32%; Dead/Treated At 21 Days ([2]; 25 mg./kg. oral): 1/9; Mean Weight Gain, Day 14 ([2]; 25 mg./kg. oral): 41 grams; Mean Weight Gain, Day 21 ([2]; 25 mg./kg. oral): 38 grams; duration of action (in words) ([2]; greater suppression of primary and secondary lesions at the 21 day observation period): longer duration of action than standards; mortality (in words) ([2]; relative to either controls or rats treated with standard compounds): low mortality |
